Measured values taken from patent publication US20080268492A1, “Methods for Determining Optimal Techniques for Vitrification of Isolated Cells” (THE CURATORS OF THE UNIVERSITY OF MISSOURI, priority 2007, published 2008).
Read-outs that look alike come from different tables or passages of the source. One block for each compound: values may come before it.

Columns and labels:
[1] = test system: mature (MII) human oocytes
Description: Measurements of oocyte permeability were conducted at different temperatures on an inverted microscope (Leica DMIRB, China). Perfusion of the oocytes was performed as previously described and validated in the laboratory Oocytes were placed in 20 μl drops of Hepes-HTF (Irvine Scientific) with 10% SSS in a petri dish covered with mineral oil (Vitrolife; Englewood, Colo., USA) to prevent evaporation. An initial photograph was taken of the oocyte in order to calculate the initial volume. […] When the perfusate merged with the 20 μl drop of base medium, photographs of the oocytes were taken at regular intervals.
The oocytes were held in place during the experiment using a glass holding pipette (Humagen Holding MPH-MED-30, I.D.-20 μm, O.D.-95˜120 μm) and micromanipulators (#RI MODEL SAS11/2-E, Integra Research Instruments, UK). For temperatures lower than ambient, a 35 mm Petri dish (Falcon 35-1008) was placed in an aluminum chamber that was cooled with circulating liquid via a cooling bath (Fisher model 9109) and pumped through the aluminum chamber using polymer tubing. The bottom of the dish was wrapped in aluminum foil and a square hole was cut in the foil to facilitate viewing the oocyte. This was performed so the dish would fit snugly in the chamber to facilitate heat transfer from the chamber to the dish. The temperature in the cooling bath was set to either −2° C. or +7° C. for the 2 cold temperatures. The actual temperature of the media in the dish was warmer than this due to heat exchange of the fluid as it circulated through the tubing and chamber.
For the third treatment, oocyte permeability was measured at ambient temperature (˜25° C.) where the perfusion took place in a 50 mm Petri dish (Falcon 35-1006) placed on the microscope stage with no heating or cooling. Finally, the warmest temperature was attained in a similar fashion but the temperature of the media was raised by using a microscope stage warmer set to 39° C. Variations in temperature of the media occurred due to day-to-day fluctuations in temperature in the laboratory. However, the actual temperature of the media for each replicate during the experiment was measured using a type-T (copper/constantan) thermocouple and an electronic thermometer (model 51 II, Fluke Corporation, Everett, Wash. USA).
After the experimental run, the oocyte was released from the holding pipette on the micromanipulator and the temperature of the medium was measured such that the thermocouple was visible in the microscope field of view, ensuring that the temperature was recorded at the exact location of the oocyte. […] The exact time of these transitions was recorded during each replication and was accounted for during the calculations to estimate the permeability parameters. […]

[2] = cited from earlier work; for concentration required to maintain a vitreous state during slow warming: aqueous solution with this compound as the only solute; for total solute required to maintain a vitreous state during cooling and warming: prior analysis
[3] = test system: Rhesus macaque oocytes; conditions: single-step addition and removal; cited from earlier work
[4] = test system: mouse oocytes; conditions: cited from earlier work
[5] = test system: bovine oocytes; conditions: 4 or 5.5 mol/L EG in a single step; cited from earlier work
[6] = Differential scanning calorimetry of EG/sucrose/saline solutions (vitreous state during cooling and warming); assay type: physicochemical; conditions: for total concentration of the solution necessary to prevent crystallization during warming: cooling 100° C/min, warming 10° C/min; for DSC thermogram during warming: sucrose 0.3 molal with EG
Description: This experiment was designed to determine the amount of EG necessary to maintain an ice-free (i.e. vitreous) state during cooling to cryogenic temperatures ([…]; below the glass transition temperature of these solutions) and warming, when the sucrose concentration ranged from 0.1 to 1.1 molal (mol/kg; equivalent to 0.053 to 0.53 molar (mol/L)). In studies of the physical properties of solutions, components of the solutions are usually measured by weight, not volume. […] Furthermore, concentrations are usually reported in weight fractions (weight percent (w/w, or wt %)). These conventions were used in this experiment and references was made to the equivalent molar concentrations when comparing the results to previously published studies.
A Diamond Differential Scanning Calorimeter (DSC; Perkin-Elmer Waltham, Mass., USA) outfitted with an autosampler and CryoFill liquid nitrogen cooling system was employed for the thermal analysis. The solutions were composed of water (5 g) and NaCl (0.0045 g) to which various amounts of sucrose and EG were added. For this experiment, spectrophotometric grade (>99%) EG was utilized. All components were weighed on an analytical balance. Errors between the target and actual weight percent were less than 0.1% in all instances. To test the vitrification properties of the solutions, 5 μl (˜0.0055 grams) were loaded into standard 10 μl aluminum DSC pans (Perkin-Elmer Part # BO14-3015), and the pans were hermetically sealed. Embryo-grade water and HPLC-grade (>99.9% purity) cyclohexane were also run as calibration standards.
Analyses were conducted at a cooling rate of 100° C./min and a warming rate of 10° C./min to be consistent with previous studies. […] Random noise was estimated by determining the standard deviation of the actual signal from the expected value from the polynomial fit. When an apparent crystallization peak followed by a melting peak in the expected temperature range was noted, and the maximum point on the melting peak was beyond three standard deviations from the expected value, it was classified as a thermal event. Only when three independent solutions confirmed the absence of crystallization and melting was the solution classified as having achieved and maintained a vitreous state throughout the cooling and warming procedure.

Compound: OCCO [EG, ethylene glycol]
Lp (hydraulic conductivity) in the presence of EG ([1]; 6.7° C): 0.15 μm/(min·atm)
Lp (hydraulic conductivity) in the presence of EG ([1]; 35.7° C): 1.17 μm/(min·atm)
activation energy for Lp ([1]; Arrhenius plot, 95% CI 13.19 to 15.65): 14.42 kcal/mol
activation energy for Ps ([1]; Arrhenius plot, 95% CI 19.49 to 22.91): 21.20 kcal/mol
concentration required to maintain a vitreous state during slow warming [2]: ~59 wt %
EG concentration necessary to maintain a vitreous state ([2]; cooling and warming at the DSC rates (100 and 10° C/min)): 59 wt %
EG concentration that should maintain a vitreous state ([2]; warming rate on the order of 1×10^3° C/min): 50 wt %
EG concentration that should maintain a vitreous state ([2]; warming rate on the order of 1×10^4° C/min): 48 wt %
EG concentration causing membrane damage [3]: ≥ 3 mol/L
effect on development compared to untreated oocytes ([4]; 6 mol/L EG for 5 minutes): no effect on development
reduction of developmental potential ([4]; 7 mol/L EG, 2-step exposure): 30%
mean blastocyst development rate ([4]; 8 mol/L EG, exposure less than 1 minute, controls ~62%): ~50%
effect on developmental potential [5]: significant reduction

total concentration of the solution necessary to prevent crystallization during warming ([6]; 0.1 mol/kg sucrose with EG in saline): 59 wt %
total concentration of the solution necessary to prevent crystallization during warming ([6]; 0.3 mol/kg sucrose with EG in saline): 59 wt %
total concentration of the solution necessary to prevent crystallization during warming ([6]; 0.5 mol/kg sucrose with EG in saline): 59 wt %
total concentration of the solution necessary to prevent crystallization during warming ([6]; 0.7 mol/kg sucrose with EG in saline): 60 wt %
total concentration of the solution necessary to prevent crystallization during warming ([6]; 0.9 mol/kg sucrose with EG in saline): 61 wt %
total concentration of the solution necessary to prevent crystallization during warming ([6]; 1.1 mol/kg sucrose with EG in saline): 61 wt %
DSC thermogram during warming ([6]; total solute 55% weight): crystallization and melting peaks
Compound: OC[C@H]1O[C@@](CO)(O[C@H]2O[C@H](CO)[C@@H](O)[C@H](O)[C@H]2O)[C@@H](O)[C@@H]1O [sucrose]
DSC thermogram during warming ([6]; total solute 59 weight %): no evidence of crystallization and melting
concentration required to maintain a vitreous state during slow warming [2]: > 70 wt %
total solute required to maintain a vitreous state during cooling and warming ([2]; sucrose 0 mol/kg with EG): 59 wt %
total solute required to maintain a vitreous state during cooling and warming ([2]; sucrose 0.1 mol/kg with EG): 60 wt %
total solute required to maintain a vitreous state during cooling and warming ([2]; sucrose 0.5 mol/kg with EG): 61 wt %
total solute required to maintain a vitreous state during cooling and warming ([2]; sucrose 1.0 mol/kg with EG): 65 wt %
